A word on the EC50: it is the midpoint of the concentration-response curve.

Some results are limits rather than exact numbers.

EC50 data for 45 compounds are collected here from US20120157401A1, “METHODS FOR TREATING NEUROFIBROMATOSIS” (PTC Therapeutics, Inc., priority 2009, published 2012).

The test system of one assay is hypoxia-inducible endogenous VEGF expression. As to the kind of experiment: Hypoxia-inducible endogenous VEGF expression ELISA in HeLa cells, dose-response EC50 (Table 3). In kind it is cell-based, human. The settings on record: Homo sapiens, HeLa, read-out: ELISA EC50 μM. The protocol:
The ability of the Compounds to modulate hypoxia-inducible endogenous VEGF expression may be analyzed as follows. VEGF protein levels may be monitored by an ELISA assay (R&D Systems). Briefly, HeLa cells may be cultured for 24-48 hours under hypoxic conditions (1% O2, 5% CO2, balanced with nitrogen) in the presence or absence of a Compound. The conditioned media may then be assayed by ELISA, and the concentration of VEGF calculated from the standard ELISA curve of each assay.
A dose-response analysis may be performed using the ELISA assay and conditions described above. The conditions for the dose-response ELISA are analogous to those described above. A series of, e.g., seven different concentrations may be analyzed. In parallel, a dose-response cytotoxicity assay may be performed using Cell Titer Glo (Promega) under the same conditions as the ELISA to ensure that the inhibition of VEGF expression was not due to the cytotoxicity.
Background: An ELISA detects its analyte on a solid surface through an enzyme-linked reagent.
Consider `O=C(Oc1ccc(F)cc1)N1CCc2c([nH]c3ccc(Cl)cc23)C1c1ccc(OCCCCNCCO)cc1` (stereo not drawn) [Compound 735], for which the EC50 is below 0.008 µM.
With `O=C(Oc1ccc(F)cc1)N1CCc2c([nH]c3ccc(Cl)cc23)C1c1ccc(OCCCCN2CCCC2)cc1` (stereo not drawn) [Compound 736], the 50% effective concentration (EC50) was below 0.008 µM.
Same read-out and setting: the figure for `COCCCNCCCCOc1ccc(C2c3[nH]c4ccc(Cl)cc4c3CCN2C(=O)Oc2ccc(F)cc2)cc1` (stereo not drawn) [Compound 737] is 0.008 to 0.04 µM; for `O=C(Oc1ccc(F)cc1)N1CCc2c([nH]c3ccc(Cl)cc23)C1c1ccc(OCCCCN2CCOCC2)cc1` (stereo not drawn) [Compound 738] it is below 0.008 µM.
On to `O=C(Oc1ccc(F)cc1)N1CCc2c([nH]c3ccc(Cl)cc23)C1c1ccc(OCCCCN2CCCCC2)cc1` (stereo not drawn) [Compound 739], for which the concentration for a half-maximal effect (EC50) is below 0.008 µM.
As for `CN1CCN(CCCCOc2ccc(C3c4[nH]c5ccc(Cl)cc5c4CCN3C(=O)Oc3ccc(F)cc3)cc2)CC1` (stereo not drawn) [Compound 740], the EC50 was 0.04 to 0.2 µM.
Turning to `O=C(Oc1ccc(F)cc1)N1CCc2c([nH]c3ccc(Cl)cc23)C1c1ccc(OCCCCNCCCn2ccnc2)cc1` (stereo not drawn) [Compound 741], the EC50 lay within 0.04 to 0.2 µM.
In the case of `O=C(Oc1ccc(F)cc1)N1CCc2c([nH]c3ccc(Cl)cc23)C1c1ccc(OCCCCCCNCCO)cc1` (stereo not drawn) [Compound 772], the EC50 is below 0.008 µM.
Consider `O=C(Oc1ccc(F)cc1)N1CCc2c([nH]c3ccc(Cl)cc23)C1c1ccc(OCCCCCCN2CCCC2)cc1` (stereo not drawn) [Compound 773], for which the 50% effective concentration (EC50) is below 0.008 µM.
In the case of `CC(C)NCCCCCCOc1ccc(C2c3[nH]c4ccc(Cl)cc4c3CCN2C(=O)Oc2ccc(F)cc2)cc1` (stereo not drawn) [Compound 774], the EC50 is 0.008 to 0.04 µM.
Regarding `COCCCNCCCCCCOc1ccc(C2c3[nH]c4ccc(Cl)cc4c3CCN2C(=O)Oc2ccc(F)cc2)cc1` (stereo not drawn) [Compound 775], the concentration for a half-maximal effect (EC50) is below 0.008 µM.
On to `O=C(Oc1ccc(F)cc1)N1CCc2c([nH]c3ccc(Cl)cc23)C1c1ccc(OCCCCCCN2CCOCC2)cc1` (stereo not drawn) [Compound 776], for which the concentration for a half-maximal effect (EC50) is below 0.008 µM.
Consider `O=C(Oc1ccc(F)cc1)N1CCc2c([nH]c3ccc(Cl)cc23)C1c1ccc(OCCCCCCN2CCCCC2)cc1` (stereo not drawn) [Compound 777], for which the EC50 was below 0.008 µM.
Regarding `CN1CCN(CCCCCCOc2ccc(C3c4[nH]c5ccc(Cl)cc5c4CCN3C(=O)Oc3ccc(F)cc3)cc2)CC1` (stereo not drawn) [Compound 778], the half-maximal effective concentration (EC50) is below 0.008 µM.
`O=C(Oc1ccc(F)cc1)N1CCc2c([nH]c3ccc(Cl)cc23)C1c1ccc(OCCCCCCNCCCn2ccnc2)cc1` (stereo not drawn) [Compound 779]: the half-maximal effective concentration (EC50) is 0.04 to 0.2 µM.
Turning to `O=C(Oc1ccc(Cl)cc1)N1CCc2c([nH]c3ccc(Cl)cc23)C1c1ccc(OCCCCCCNCCO)cc1` (stereo not drawn) [Compound 782], the EC50 is below 0.008 µM.
Consider `O=C(Oc1ccc(Cl)cc1)N1CCc2c([nH]c3ccc(Cl)cc23)C1c1ccc(OCCCCCCN2CCCC2)cc1` (stereo not drawn) [Compound 783], for which the EC50 is below 0.008 µM.
Still for that read-out and setting: as for `CC(C)NCCCCCCOc1ccc(C2c3[nH]c4ccc(Cl)cc4c3CCN2C(=O)Oc2ccc(Cl)cc2)cc1` (stereo not drawn) [Compound 784], the figure is below 0.008 µM.
As to `COCCCNCCCCCCOc1ccc(C2c3[nH]c4ccc(Cl)cc4c3CCN2C(=O)Oc2ccc(Cl)cc2)cc1` (stereo not drawn) [Compound 785], the EC50 was below 0.008 µM.
On to `O=C(Oc1ccc(Cl)cc1)N1CCc2c([nH]c3ccc(Cl)cc23)C1c1ccc(OCCCCCCN2CCOCC2)cc1` (stereo not drawn) [Compound 786], for which the 50% effective concentration (EC50) was below 0.008 µM.
On to `O=C(Oc1ccc(Cl)cc1)N1CCc2c([nH]c3ccc(Cl)cc23)C1c1ccc(OCCCCCCN2CCCCC2)cc1` (stereo not drawn) [Compound 787], for which the concentration for a half-maximal effect (EC50) is below 0.008 µM.
As to `CN1CCN(CCCCCCOc2ccc(C3c4[nH]c5ccc(Cl)cc5c4CCN3C(=O)Oc3ccc(Cl)cc3)cc2)CC1` (stereo not drawn) [Compound 788], the EC50 is 0.008 to 0.04 µM.
For the compound `O=C(Oc1ccc(Cl)cc1)N1CCc2c([nH]c3ccc(Cl)cc23)C1c1ccc(OCCCCCCNCCCn2ccnc2)cc1` (stereo not drawn) [Compound 789], the EC50 was 0.04 to 0.2 µM.
`NCC(O)COc1ccc(C2c3[nH]c4ccc(Cl)cc4c3CCN2C(=O)Oc2ccc(Cl)cc2)cc1` (stereo not drawn) [Compound 846]: the 50% effective concentration (EC50) lay in the range of 0.04 to 0.2 µM.
As for `CNCC(O)COc1ccc(C2c3[nH]c4ccc(Cl)cc4c3CCN2C(=O)Oc2ccc(Cl)cc2)cc1` (stereo not drawn) [Compound 850], the EC50 fell in the range of 0.04 to 0.2 µM.

The assay is the same for the next values; noted with them: Homo sapiens; HeLa cells, hypoxic conditions (1% O2), 24-48 hours, VEGF in conditioned media; read-out: ELISA EC50.
`O=C(Oc1ccc(F)cc1)N1CCc2c([nH]c3ccc(Cl)cc23)C1c1ccc(OCCCCCCCl)cc1` (stereo not drawn) [Compound 723]: the concentration for a half-maximal effect (EC50) was below 0.008 µM.
Regarding `O=C(Oc1ccc(F)cc1)N1CCc2c([nH]c3ccc(Cl)cc23)C1c1ccc(OCCCCn2ccnc2)cc1` (stereo not drawn) [Compound 742], the EC50 is below 0.008 µM.
Consider `O=C(Oc1ccc(F)cc1)N1CCc2c([nH]c3ccc(Cl)cc23)C1c1ccc(OCCCCn2cncn2)cc1` (stereo not drawn) [Compound 743], for which the half-maximal effective concentration (EC50) was below 0.008 µM.
With `O=C(Oc1ccc(F)cc1)N1CCc2c([nH]c3ccc(Cl)cc23)C1c1ccc(OCCCCCCn2ccnc2)cc1` (stereo not drawn) [Compound 780], the concentration giving a half-maximal response (EC50) is below 0.008 µM.
Still for that read-out and setting: the figure for `O=C(Oc1ccc(F)cc1)N1CCc2c([nH]c3ccc(Cl)cc23)C1c1ccc(OCCCCCCn2cncn2)cc1` (stereo not drawn) [Compound 781] is below 0.008 µM; for `O=C(Oc1ccc(Cl)cc1)N1CCc2c([nH]c3ccc(Cl)cc23)C1c1ccc(OCCCCCCn2ccnc2)cc1` (stereo not drawn) [Compound 790] it is below 0.008 µM; for `O=C(Oc1ccc(Cl)cc1)N1CCc2c([nH]c3ccc(Cl)cc23)C1c1ccc(OCCCCCCn2cncn2)cc1` (stereo not drawn) [Compound 791] it is below 0.008 µM.
For `O=C(Oc1ccc(F)cc1)N1CCc2c([nH]c3ccc(Cl)cc23)C1c1ccc(OCCn2ccnn2)cc1` (stereo not drawn) [Compound 833], the concentration for a half-maximal effect (EC50) fell in the range of 0.04 to 0.2 µM.
Turning to `O=C(Oc1ccc(F)cc1)N1CCc2c([nH]c3ccc(Cl)cc23)C1c1ccc(OCCn2cncn2)cc1` (stereo not drawn) [Compound 834], the concentration for a half-maximal effect (EC50) is 0.008 to 0.04 µM.
As for `O=C(Oc1ccc(F)cc1)N1CCc2c([nH]c3ccc(Cl)cc23)C1c1ccc(OCCn2ccnc2)cc1` (stereo not drawn) [Compound 835], the EC50 was 0.04 to 0.2 µM.
Take `O=C(Oc1ccc(F)cc1)N1CCc2c([nH]c3ccc(Cl)cc23)C1c1ccc(OCCn2cccn2)cc1` (stereo not drawn) [Compound 836]: the half-maximal effective concentration (EC50) fell in the range of 0.008 to 0.04 µM.
For the compound `O=C(Oc1ccc(Cl)cc1)N1CCc2c([nH]c3ccc(Cl)cc23)C1c1ccc(OCCn2ccnn2)cc1` (stereo not drawn) [Compound 839], the EC50 is 0.008 to 0.04 µM.
In the case of `O=C(Oc1ccc(Cl)cc1)N1CCc2c([nH]c3ccc(Cl)cc23)C1c1ccc(OCCn2cncn2)cc1` (stereo not drawn) [Compound 840], the concentration for a half-maximal effect (EC50) fell in the range of 0.008 to 0.04 µM.
As for `CC(C)(C)OC(=O)N1CCC(COc2ccc(C3c4[nH]c5ccc(Cl)cc5c4CCN3C(=O)Oc3ccc(Cl)cc3)cc2)CC1` (stereo not drawn) [Compound 845], the EC50 lay in the range of 0.04 to 0.2 µM.
Regarding `CC(=O)NCC(O)COc1ccc(C2c3[nH]c4ccc(Cl)cc4c3CCN2C(=O)Oc2ccc(Cl)cc2)cc1` (stereo not drawn) [Compound 847], the EC50 fell in the range of 0.008 to 0.04 µM.
Same read-out and setting: as for `COC(=O)NCC(O)COc1ccc(C2c3[nH]c4ccc(Cl)cc4c3CCN2C(=O)Oc2ccc(Cl)cc2)cc1` (stereo not drawn) [Compound 848], the figure is below 0.008 µM.
Turning to `CS(=O)(=O)NCC(O)COc1ccc(C2c3[nH]c4ccc(Cl)cc4c3CCN2C(=O)Oc2ccc(Cl)cc2)cc1` (stereo not drawn) [Compound 849], the EC50 is 0.008 to 0.04 µM.
Consider `O=C(Oc1ccc(Cl)cc1)N1CCc2c([nH]c3ccc(Cl)cc23)C1c1ccc(OCC(O)Cn2ccnc2)cc1` (stereo not drawn) [Compound 867], for which the concentration for a half-maximal effect (EC50) was in the range of 0.008 to 0.04 µM.
Same read-out and setting: as for `Cc1ccc(OC(=O)N2CCc3c([nH]c4ccc(Cl)cc34)C2c2ccc(OCCCn3cncn3)cc2)cc1` (stereo not drawn) [Compound 882], the figure is below 0.008 µM; as for `COc1ccc(OC(=O)N2CCc3c([nH]c4ccc(Cl)cc34)C2c2ccc(OCCCn3cncn3)cc2)cc1` (stereo not drawn) [Compound 888], below 0.008 µM.
